Where two headings read alike, the source gives them in different places.
Key:
Assay in all cases: receptor-mediated PP2C (HAB1) inhibition in vitro assay
Format in all cases: biochemical
Conditions in all cases: for remaining activity at 50 µM: 50 uM of the test compound
PYL2 = molecular target: T1, PYL2 (Arabidopsis thaliana, UniProt O80992)
T1 construct: 6X-His; made in house; host or cells: E. coli BL21[DE3]pLysS
T1 sequence (O80992 1-190): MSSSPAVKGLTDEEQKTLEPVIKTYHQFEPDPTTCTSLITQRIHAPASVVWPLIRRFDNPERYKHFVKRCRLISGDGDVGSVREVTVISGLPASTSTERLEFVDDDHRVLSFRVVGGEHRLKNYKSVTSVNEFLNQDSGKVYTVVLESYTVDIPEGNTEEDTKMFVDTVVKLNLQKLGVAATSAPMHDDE
T1 sequence (Q9CAJ0 23-511 partner): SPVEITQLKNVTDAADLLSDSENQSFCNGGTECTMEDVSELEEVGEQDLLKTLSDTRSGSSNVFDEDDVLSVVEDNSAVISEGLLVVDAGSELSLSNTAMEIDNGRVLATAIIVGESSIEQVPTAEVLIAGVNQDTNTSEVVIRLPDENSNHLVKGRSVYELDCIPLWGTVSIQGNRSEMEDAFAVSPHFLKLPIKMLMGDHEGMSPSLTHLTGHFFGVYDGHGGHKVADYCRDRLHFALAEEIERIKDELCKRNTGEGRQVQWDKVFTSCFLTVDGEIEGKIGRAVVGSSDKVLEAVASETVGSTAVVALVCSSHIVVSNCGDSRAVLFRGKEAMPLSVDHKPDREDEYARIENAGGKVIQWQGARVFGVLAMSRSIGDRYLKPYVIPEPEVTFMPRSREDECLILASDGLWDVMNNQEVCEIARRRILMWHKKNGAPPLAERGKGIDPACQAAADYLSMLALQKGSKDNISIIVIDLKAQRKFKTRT
In short: (§1)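 His-tagged receptors (MBP fusion for PYL11) at 2:1 ratio to 50 nM GST-HAB1 in 100 mM Tris-OAc pH 7.9, 100 mM NaCl, 1 mM MnCl2; 4-methylumbelliferyl-phosphate fluorogenic substrate. Compounds at 50 uM (ABA 10 uM); IC50 from dose curves for selected compounds.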

PYL3 = molecular target: T2, PYL3 (Arabidopsis thaliana, UniProt Q9SSM7)
T2 construct: 6X-His; made in house; host or cells: E. coli BL21[DE3]pLysS
T2 sequence (Q9SSM7 1-209): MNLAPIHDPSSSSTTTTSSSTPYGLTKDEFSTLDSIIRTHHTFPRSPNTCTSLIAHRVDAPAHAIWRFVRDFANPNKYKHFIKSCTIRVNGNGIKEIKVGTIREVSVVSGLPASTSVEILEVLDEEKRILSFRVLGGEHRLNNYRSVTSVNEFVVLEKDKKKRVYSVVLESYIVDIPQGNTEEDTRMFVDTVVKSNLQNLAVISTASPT
T2 sequence (Q9CAJ0 23-511 partner): T1 sequence (Q9CAJ0 23-511 partner)
In short: as §1

PYL5 = molecular target: T3, PYL5 (Arabidopsis thaliana, UniProt Q9FLB1)
T3 construct: 6X-His; made in house; host or cells: E. coli BL21[DE3]pLysS
T3 sequence (Q9FLB1 1-203): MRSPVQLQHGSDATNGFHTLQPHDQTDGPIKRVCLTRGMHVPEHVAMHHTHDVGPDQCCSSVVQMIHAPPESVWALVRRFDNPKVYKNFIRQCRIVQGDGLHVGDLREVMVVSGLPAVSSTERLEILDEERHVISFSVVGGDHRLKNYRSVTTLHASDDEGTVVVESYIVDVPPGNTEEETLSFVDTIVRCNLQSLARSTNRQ
T3 sequence (Q9CAJ0 23-511 partner): T1 sequence (Q9CAJ0 23-511 partner)
In short: (§2)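 Compounds, tested at 25 μM or 50 uM with ABA at 10 uM, were incubated with recombinant receptor and 50 nM GST-HAB1 (2:1 ratio) in MnCl2-containing Tris-OAc buffer, pH 7.9. Phosphatase activity was followed by 4-methylumbelliferyl-phosphate fluorescence.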

PYL9 = molecular target: T4, PYL9 (Arabidopsis thaliana, UniProt Q84MC7)
T4 construct: 6X-His; made in house; host or cells: E. coli BL21[DE3]pLysS
T4 sequence (Q84MC7 1-187): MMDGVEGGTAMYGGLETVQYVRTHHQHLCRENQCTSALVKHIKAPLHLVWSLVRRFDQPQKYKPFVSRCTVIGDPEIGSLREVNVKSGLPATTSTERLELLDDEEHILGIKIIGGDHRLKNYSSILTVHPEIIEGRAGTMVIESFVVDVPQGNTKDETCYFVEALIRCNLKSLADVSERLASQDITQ
T4 sequence (Q9CAJ0 23-511 partner): T1 sequence (Q9CAJ0 23-511 partner)
In short: (§3)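 Fluorogenic readout: 4-methylumbelliferyl-phosphate hydrolysis by 50 nM GST-HAB1 plus 2:1 His-receptor; Tris-OAc pH 7.9, NaCl, 1 mM MnCl2, β-ME. Compounds at 25 μM or 50 uM single dose; IC50 from dose curves for selected compounds.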

PYL8 = molecular target: T5, PYL8 (Arabidopsis thaliana, UniProt Q9FGM1)
T5 construct: 6X-His; made in house; host or cells: E. coli BL21[DE3]pLysS
T5 sequence (Q9FGM1 1-188): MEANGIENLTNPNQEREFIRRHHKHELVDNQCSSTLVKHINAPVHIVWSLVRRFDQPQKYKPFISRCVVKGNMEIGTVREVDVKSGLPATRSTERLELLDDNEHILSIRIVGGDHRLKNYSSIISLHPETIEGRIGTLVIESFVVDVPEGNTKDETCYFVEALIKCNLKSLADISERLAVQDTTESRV
T5 sequence (Q9CAJ0 23-511 partner): T1 sequence (Q9CAJ0 23-511 partner)
In short: as §3

PYL4 = molecular target: T6, PYL4 (Arabidopsis thaliana, UniProt O80920)
T6 construct: 6X-His; made in house; host or cells: E. coli BL21[DE3]pLysS
T6 sequence (O80920 1-207): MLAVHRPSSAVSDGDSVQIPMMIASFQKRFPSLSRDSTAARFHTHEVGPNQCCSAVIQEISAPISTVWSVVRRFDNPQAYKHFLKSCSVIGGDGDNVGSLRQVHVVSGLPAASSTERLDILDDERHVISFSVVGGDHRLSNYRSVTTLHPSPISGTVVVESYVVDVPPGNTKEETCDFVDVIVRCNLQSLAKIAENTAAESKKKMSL
T6 sequence (Q9CAJ0 23-511 partner): T1 sequence (Q9CAJ0 23-511 partner)
In short: as §2

[1] = compound at 25 μM, control without agonist = 100%
[2] = Table XII-B, calculated from dose curves, read-out: PP2C Activity (IC50 in uM) PYL2
[3] = Table XII-B, calculated from dose curves, read-out: PP2C Activity (IC50 in uM) PYL3
[4] = Table XII-B, calculated from dose curves, read-out: PP2C Activity (IC50 in uM) PYL5
[5] = Table XII-B, calculated from dose curves, read-out: PP2C Activity (IC50 in uM) PYL9
[6] = Table XII-B, calculated from dose curves, read-out: PP2C Activity (IC50 in uM) PYL8
[7] = Table XII-B, calculated from dose curves, read-out: PP2C Activity (IC50 in uM) PYL4

Structure (SMILES) | remaining activity at 50 µM (PYL2) | IC50 (PYL2; [2]) | remaining activity at 50 µM (PYL3) | IC50 (PYL3; [3]) | remaining activity at 50 µM (PYL5) | IC50 (PYL5; [4]) | remaining activity at 50 µM (PYL9) | IC50 (PYL9; [5]) | remaining activity at 50 µM (PYL8) | IC50 (PYL8; [6]) | remaining activity at 50 µM (PYL4) | IC50 (PYL4; [7]) | other results
N#Cc1ccc(CS(=O)(=O)NC(=O)C2(c3cccc(C#N)c3)CC2)cc1 [Compound 50] | – | – | – | – | – | – | – | – | – | – | – | – | IC50 (PYL2; Table VII, read-out: PP2C Dose Curves PYL2 (IC50)): 54.7 µM; IC50 (PYL3; Table VII, read-out: PP2C Dose Curves PYL3 (IC50)): 20.8 µM; IC50 (PYL5; Table VII, read-out: PP2C Dose Curves PYL5 (IC50)): 0.39 µM; remaining activity at 25 µM (PYL5; [1]): 7%; PYL5 agonist potency and selectivity (PYL5; compounds with cyclopropyl rings at alpha carbon): potent and relatively selective PYL5 agonists; IC50 (PYL9; Table VII, read-out: PP2C Dose Curves PYL9 (IC50)): 5.76 µM; remaining activity at 25 µM (PYL9; [1]): 18%; IC50 (PYL8; Table VII, read-out: PP2C Dose Curves PYL8 (IC50)): 8.39 µM; remaining activity at 25 µM (PYL8; [1]): 36%; IC50 (PYL4; Table VII, read-out: PP2C Dose Curves PYL4 (IC50)): > 50 µM; remaining activity at 25 µM (PYL4; [1]): 67%
O=C(NS(=O)(=O)Cc1ccc([N+](=O)[O-])cc1)C1(c2ccccc2)CCCCC1 [Compound 63] | 115% | > 50 µM | 127% | > 50 µM | 107% | > 50 µM | 75.5% | > 50 µM | 96.6% | > 50 µM | 103% | > 50 µM | –
O=C(NS(=O)(=O)Cc1ccc(F)cc1)C1(c2ccccc2)CCCCC1 [Compound 64] | 107% | > 50 µM | 97.4% | > 50 µM | 103% | > 50 µM | 91.1% | > 50 µM | 101% | > 50 µM | 105% | > 50 µM | –
CC(C)COC(=O)NS(=O)(=O)Cc1ccc(C#N)cc1 [Compound 65, 2-Methylpropyl N-[(4-cyanophenyl)methanesulfonyl]carbamate] | 95.2% | > 50 µM | 92.9% | > 50 µM | 23.6% | 14.2 µM | 18.6% | 6.5 µM | 35.8% | 20.4 µM | 95.5% | > 50 µM | –
CC1CCC(C(=O)NS(=O)(=O)Cc2ccc(C#N)cc2)(c2ccc(F)cc2)CC1 (centres unmarked) [Compound 67, N-[(4-Cyanophenyl)methanesulfonyl]-1-(4-fluorophenyl)-4-methylcyclohexane-1-carboxamide] | 93% | > 50 µM | 101% | > 50 µM | 43% | 25.3 µM | 8% | 2.13 µM | 25.8% | 9.6 µM | 91.9% | > 50 µM | –
CC1(C)CCC(C(=O)NS(=O)(=O)Cc2ccc(C#N)cc2)(c2ccc(F)cc2)CC1 [Compound 68, N-[(4-Cyanophenyl)methanesulfonyl]-1-(4-fluorophenyl)-4,4-dimethylcyclohexane-1-carboxamide] | 94.8% | > 50 µM | 98.3% | > 50 µM | 103% | > 50 µM | 22.6% | 17.7 µM | 57.5% | > 50 µM | 94% | > 50 µM | –
N#Cc1ccc(CS(=O)(=O)NC(=O)C2(c3ccccc3)CCCCC2)cc1 [Compound 69, N-[(4-Cyanophenyl)methanesulfonyl]-1-phenylcyclohexane-1-carboxamide] | 96.2% | > 50 µM | 103% | > 50 µM | 119% | > 50 µM | 5.8% | 0.135 µM | 14.7% | 0.75 µM | 95% | > 50 µM | –
